These results are taken from patent US20230111310A1, “CARBOXYLIC ACID DERIVATIVE-SUBSTITUTED IMINO ARYL COMPOUND, PREPARATION METHOD THEREFOR, HERBICIDAL COMPOSITION AND USE THEREOF” (Qingdao Kingagroot Chemical Compound Co., Ltd., priority 2020, published 2023).

Common to all, as to type: in vivo
Data set [1] has as its system Abutilon theophrasti. Put plainly: Weeding effect in post-emergence stage. The settings on record: for Weeding effect in post-emergence stage, Abutilon theophrasti: Dose 15 g/ha, level of fresh weight growth control rate. The method in brief:
(§1)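 Seeds are sown in soil-filled pots under 0.5-2 cm soil and grown 2 weeks in greenhouse. Plants at 2-3 leaves are sprayed with compound (acetone, Tween 80, 1.5 liter/ha methyl oleate EC, water) at 7.5 to 500 g/ha. Damage is rated 3 weeks later, averaging three repeats.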

The subject of a further data set is Alopecurus japonicus. Put plainly: Weeding effect in post-emergence stage. The settings on record: for Weeding effect in post-emergence stage, Alopecurus japonicus: Dose 15 g/ha, level of fresh weight growth control rate. The essentials: as §1
For the next data set, the system named is Digitaria sanguinalis. In words: Weeding effect in post-emergence stage. To be noted: for Weeding effect in post-emergence stage, Digitaria sanguinalis: Dose 15 g/ha, level of fresh weight growth control rate. The essentials: as §1
For another data set, the system named is Eleusine indica. In words: Weeding effect in post-emergence stage. The settings on record: for Weeding effect in post-emergence stage, Eleusine indica: Dose 15 g/ha, level of fresh weight growth control rate. The essentials: as §1
The subject of data set [2] is Setaria viridis. In words: Weeding effect in post-emergence stage. The settings on record: for Weeding effect in post-emergence stage, Setaria viridis: Dose 15 g/ha, level of fresh weight growth control rate. The method in brief: as §1
The test system of another data set is Echinochloa crusgalli. In words: Weeding effect in post-emergence stage. To be noted: for Weeding effect in post-emergence stage, Echinochloa crusgalli: Dose 15 g/ha, level of fresh weight growth control rate. The method in brief: as §1
Data set [3] has as its system Abutilon theophrasti. In words: Weeding effect in pre-emergence stage. To be noted: 30 g/ha, 4 weeks. The method in brief:
(§2)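 Test compounds were dissolved in acetone with tween 80, diluted with water and sprayed right after sowing, with seeds covered by 0.5-2 cm of soil. Rates were 500 to 7.5 g/ha. Growth control was scored against activity-level criteria after 4 weeks in the greenhouse.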

Another data set concerns Amaranthus retroflexus. Put plainly: Weeding effect in pre-emergence stage. The settings on record: 30 g/ha, 4 weeks. The essentials:
as §2

In another data set the test system is Capsella bursa-pastoris. In words: Weeding effect in pre-emergence stage. The settings on record: 30 g/ha, 4 weeks. The essentials: as §2
Another data set deals with Descurainia sophia. In words: Weeding effect in pre-emergence stage. To be noted: 30 g/ha, 4 weeks. The essentials:
as §2

Data set [4] relates to Setaria viridis. Put plainly: Weeding effect in pre-emergence stage. The settings on record: 30 g/ha, 4 weeks. The method in brief: as §2
The test system of another data set is Veronica didyma Tenore. In words: Weeding effect in pre-emergence stage. The settings on record: 30 g/ha, 4 weeks. The method in brief:
as §2

Another data set deals with Peanut. Put plainly: Pre-emergence stage, crop selectivity. The settings on record: 30 g/ha, 4 weeks. The essentials: as §2
For the next data set, the system named is Soybeans. In words: Pre-emergence stage, crop selectivity. To be noted: 30 g/ha, 4 weeks. The method in brief: as §2
A further data set concerns corn. In words: Pre-emergence stage, crop selectivity. The settings on record: 30 g/ha, 4 weeks. The method in brief: as §2
Another data set relates to cotton. In words: Pre-emergence stage, crop selectivity. To be noted: 30 g/ha, 4 weeks. The essentials: as §2
The next data set deals with Leptochloa chinensis. Put plainly: Weed control effect evaluation in rice field. The settings on record: rice field pot, 30 g/ha, 14 days after treatment. An excerpt: (§3) The activity level criteria for plant damage (i.e., growth control rate) are as follows:
(§4) Rice field soil was loaded into a 1/1,000,000 ha pot. The seeds of Echinochloa crusgalli. Scirpus juncoides. Bidens tripartita L., Monochoria vaginalis, and Leptochloa chinensis were sowed and gently covered with soil, then left to stand still in greenhouse in the state of 0.5-1 cm of water storage. The tuber of Sagittaria trifolia was planted in the next day or 2 days later. It was kept at 3-4 cm of water storage thereafter. The weeds were treated by dripping the WP or SC water diluents prepared according to the common preparation method of the compounds of the present invention with pipette homogeneously to achieve specified effective amount when Echinochloa crusgalli. Scirpus juncoides, Bidens tripartita L., Monochoria vaginalis, and Leptochloa chinensis reached 0.5 leaf stage and Sagittaria trifolia reached the time point of primary leaf stage.
(§5) The fertility condition of Echinochloa crusgalli. Scirpus juncoides. Bidens tripartita L., Monochoria vaginalis, Leptochloa chinensis and Sagittaria trifolia 14 days after the treatment of the compound of the invention and the fertility condition of rice 21 days after the treatment of the compound of the invention respectively with the naked eye. Evaluate the weed control effect with the above activity standard level. Many compounds show excellent activity and selectivity.

For the next data set, the system named is Monochoria vaginalis. In words: Weed control effect evaluation in rice field. To be noted: rice field pot, 30 g/ha, 14 days after treatment.
Description: as §3, §4, §5

In the next data set the test system is Scirpus juncoides. In words: Weed control effect evaluation in rice field. The settings on record: rice field pot, 30 g/ha, 14 days after treatment.
Description: as §3, §4, §5

The subject of a further data set is Rice. In words: Transplanted rice safety evaluation. To be noted: transplanted japonica rice, 30 g/ha, 21 days after treatment. On the procedure:
as §3
In addition, the rice field soil that loaded into the 1/1,000,000 ha pot was leveled to keep water storage at 3-4 cm depth. The 5 leaf stage rice (japonica rice) was transplanted at 3 cm of transplanting depth the next day. The compound of the present invention was treated by the same way after 5 days of transplantation.
as §5

The mark [5] stands for this setting: Dose 30 g/ha, fresh weight control rate level.

In the case of `C#CCOC(=O)[C@@H](C)O/N=C/c1cc(-n2c(=O)cc(C(F)(F)F)n(C)c2=O)c(F)cc1Cl` [212(R)], the “Weeding effect in post-emergence stage, Abutilon theophrasti” value in the data set on Abutilon theophrasti [1] was 5 (Level 5: growth control rate is above 85%). The “Weeding effect in post-emergence stage, Alopecurus japonicus” value with Alopecurus japonicus is listed as 5 (Level 5: growth control rate is above 85%). Besides, the “Weeding effect in post-emergence stage, Digitaria sanguinalis” value in the data set on Digitaria sanguinalis is given as 5 (Level 5: growth control rate is above 85%). Further, the “Weeding effect in post-emergence stage, Eleusine indica” value with Eleusine indica is reported as 5 (Level 5: growth control rate is above 85%). Besides, the “Weeding effect in post-emergence stage, Setaria viridis” value with Setaria viridis [2] is listed as 5 (Level 5: growth control rate is above 85%). Further, the “Weeding effect in post-emergence stage, Echinochloa crusgalli” value in the data set with Echinochloa crusgalli is 5 (Level 5: growth control rate is above 85%). The “activity level (growth control rate) Abutilon theophrasti” value in the data set on Abutilon theophrasti [3] is given as 5 (Level 5: growth control rate is above 85%). Besides, the “activity level (growth control rate) Amaranthus retroflexus” value in the data set with Amaranthus retroflexus is 5 (Level 5: growth control rate is above 85%). In the data set with Capsella bursa-pastoris, the “activity level (growth control rate) Capsella bursa-pastoris” value was 5 (Level 5: growth control rate is above 85%). The “activity level (growth control rate) Descurainia sophia” value with Descurainia sophia is listed as 5 (Level 5: growth control rate is above 85%). In the data set with Setaria viridis [4], the “activity level (growth control rate) Setaria viridis” value is reported as 5 (Level 5: growth control rate is above 85%). Further, in the data set on Veronica didyma Tenore, the “activity level (growth control rate) Veronica didyma Tenore” value is 5 (Level 5: growth control rate is above 85%). In addition, the “plant damage level Peanut” value in the data set with Peanut is on record as 0 (Level 0: growth control rate is less than 5%). Also, in the data set on Soybeans, the “plant damage level Soybeans” value is 0 (Level 0: growth control rate is less than 5%). In addition, the “plant damage level Corn” value with corn is on record as 0 (Level 0: growth control rate is less than 5%). The “plant damage level Cotton” value with cotton is 0 (Level 0: growth control rate is less than 5%). For the same compound, the “activity level (weed control effect) Leptochloa chinensis” value in the data set with Leptochloa chinensis is 5 (Level 5: growth control rate is above 85%). Further, the “activity level (weed control effect) Monochoria vaginalis” value in the data set on Monochoria vaginalis is 5 (Level 5: growth control rate is above 85%). Moreover, the “activity level (weed control effect) Scirpus juncoides” value in the data set on Scirpus juncoides is 5 (Level 5: growth control rate is above 85%). In addition, the “plant damage level Rice” value in the data set on Rice is recorded as 0 (Level 0: growth control rate is less than 5%).

For the compound `CCOC(=O)[C@@H](C)O/N=C/c1cc(-n2c(=O)cc(C(F)(F)F)n(C)c2=O)c(F)cc1Cl` [196(R)], the “Weeding effect in post-emergence stage, Abutilon theophrasti” value with Abutilon theophrasti [1] is 5 (Level 5: growth control rate is above 85%). Further, the “Weeding effect in post-emergence stage, Alopecurus japonicus” value in the data set with Alopecurus japonicus was 5 (Level 5: growth control rate is above 85%). In the data set on Digitaria sanguinalis, the “Weeding effect in post-emergence stage, Digitaria sanguinalis” value is 5 (Level 5: growth control rate is above 85%). Also, in the data set with Eleusine indica, the “Weeding effect in post-emergence stage, Eleusine indica” value is 5 (Level 5: growth control rate is above 85%). Moreover, in the data set on Setaria viridis [2], the “Weeding effect in post-emergence stage, Setaria viridis” value is given as 5 (Level 5: growth control rate is above 85%). Moreover, the “Weeding effect in post-emergence stage, Echinochloa crusgalli” value in the data set with Echinochloa crusgalli is 5 (Level 5: growth control rate is above 85%). Also, the “activity level (growth control rate) Abutilon theophrasti” value in the data set on Abutilon theophrasti [3] is on record as 5 (Level 5: growth control rate is above 85%). Moreover, the “activity level (growth control rate) Amaranthus retroflexus” value in the data set on Amaranthus retroflexus is on record as 5 (Level 5: growth control rate is above 85%). For the same compound, the “activity level (growth control rate) Capsella bursa-pastoris” value with Capsella bursa-pastoris is reported as 5 (Level 5: growth control rate is above 85%). Further, the “activity level (growth control rate) Descurainia sophia” value in the data set with Descurainia sophia is listed as 5 (Level 5: growth control rate is above 85%). Further, the “activity level (growth control rate) Setaria viridis” value with Setaria viridis [4] is 5 (Level 5: growth control rate is above 85%). In the data set with Veronica didyma Tenore, the “activity level (growth control rate) Veronica didyma Tenore” value is listed as 5 (Level 5: growth control rate is above 85%). The “plant damage level Peanut” value with Peanut is reported as 0 (Level 0: growth control rate is less than 5%). In the data set with Soybeans, the “plant damage level Soybeans” value is reported as 0 (Level 0: growth control rate is less than 5%). The “plant damage level Corn” value with corn is 0 (Level 0: growth control rate is less than 5%). In addition, the “plant damage level Cotton” value with cotton is recorded as 0 (Level 0: growth control rate is less than 5%). Besides, the “activity level (weed control effect) Leptochloa chinensis” value in the data set on Leptochloa chinensis is 5 (Level 5: growth control rate is above 85%). The “activity level (weed control effect) Monochoria vaginalis” value with Monochoria vaginalis is listed as 5 (Level 5: growth control rate is above 85%). Moreover, in the data set with Scirpus juncoides, the “activity level (weed control effect) Scirpus juncoides” value was 5 (Level 5: growth control rate is above 85%). The “plant damage level Rice” value with Rice was 0 (Level 0: growth control rate is less than 5%).

Turning to `C=CCOC(=O)C(C)(C)O/N=C/c1cc(-n2c(=O)cc(C(F)(F)F)n(C)c2=O)c(F)cc1Cl` [Compound 434], the “Weeding effect in post-emergence stage, Abutilon theophrasti (level)” value in the data set on Abutilon theophrasti [1] (setting [5]) was 5 (Level 5: growth control rate is above 85%). Further, in the data set with Alopecurus japonicus (setting [5]), the “Weeding effect in post-emergence stage, Alopecurus japonicus (level)” value is listed as 5 (Level 5: growth control rate is above 85%). The “Weeding effect in post-emergence stage, Digitaria sanguinalis (level)” value in the data set on Digitaria sanguinalis (setting [5]) is 5 (Level 5: growth control rate is above 85%). In addition, the “Weeding effect in post-emergence stage, Eleusine indica (level)” value with Eleusine indica (setting [5]) is recorded as 5 (Level 5: growth control rate is above 85%). In addition, in the data set with Setaria viridis [2] (setting [5]), the “Weeding effect in post-emergence stage, Setaria viridis (level)” value is given as 5 (Level 5: growth control rate is above 85%). Besides, in the data set on Echinochloa crusgalli (setting [5]), the “Weeding effect in post-emergence stage, Echinochloa crusgalli (level)” value is recorded as 5 (Level 5: growth control rate is above 85%). Besides, the “activity level (growth control rate) Abutilon theophrasti” value in the data set with Abutilon theophrasti [3] is recorded as 5 (Level 5: growth control rate is above 85%). Besides, the “activity level (growth control rate) Amaranthus retroflexus” value in the data set with Amaranthus retroflexus is reported as 5 (Level 5: growth control rate is above 85%). For the same compound, in the data set on Capsella bursa-pastoris, the “activity level (growth control rate) Capsella bursa-pastoris” value is 5 (Level 5: growth control rate is above 85%). Moreover, the “activity level (growth control rate) Descurainia sophia” value in the data set with Descurainia sophia is 5 (Level 5: growth control rate is above 85%). In addition, the “activity level (growth control rate) Setaria viridis” value with Setaria viridis [4] was 5 (Level 5: growth control rate is above 85%). In addition, the “activity level (growth control rate) Veronica didyma Tenore” value with Veronica didyma Tenore was 5 (Level 5: growth control rate is above 85%). For the same compound, the “plant damage level Peanut” value in the data set on Peanut is 0 (Level 0: growth control rate is less than 5%). Besides, the “plant damage level Soybeans” value with Soybeans is recorded as 0 (Level 0: growth control rate is less than 5%). The “plant damage level Corn” value in the data set on corn was 0 (Level 0: growth control rate is less than 5%). Moreover, the “plant damage level Cotton” value in the data set on cotton is recorded as 0 (Level 0: growth control rate is less than 5%). The “activity level (weed control effect) Leptochloa chinensis” value in the data set with Leptochloa chinensis is given as 5 (Level 5: growth control rate is above 85%). The “activity level (weed control effect) Monochoria vaginalis” value in the data set with Monochoria vaginalis was 5 (Level 5: growth control rate is above 85%). The “activity level (weed control effect) Scirpus juncoides” value with Scirpus juncoides is on record as 5 (Level 5: growth control rate is above 85%). The “plant damage level Rice” value in the data set on Rice is given as 0 (Level 0: growth control rate is less than 5%).
